In patent publication US9145375B2, “Quinazolinone compounds” (PRANA BIOTECHNOLOGY LIMITED, priority 2008, dated 2015):
“And” between values parts separate entries of the source, which are not always exact repeats. Identical values can stand only once.

Assays:
[1] = tested on: MPTP induced cell death in the SN; test: Parkinson's disease in vivo: MPTP model; set-up: species or system mouse; conditions: MPTP mice; for Behaviour Pole Test, % (SSV = 0%) / Behaviour Pole Test, value ± SD: 30 mg/kg; for SN cell counts % of SSV / SN cell counts (cells +/− SD): test drug 30 mg/kg daily by oral gavage, several experiments
From the text: Parkinson's Disease In Vivo Technique: MPTP
MPTP (1-methyl 4-phenyl 1,2,3,6-tetrahydropyridine) is a chemical that is related to the opioid analgesic drugs. MPTP causes Parkinsonian side-effects. This occurs when MPTP is metabolized into MPP+, which kills neurons in a part of the brain called the substantia nigra. MPP+ interferes with mitochondria metabolism which leads to cell death and causes the build up of free radicals, toxic molecules that contribute further to cell destruction. MPTP has abilities to effect neuronal death in dopaminergic cells. Such effects lead to gross depletion of dopaminergic neurons which has severe implications on cortical control of complex movements.
General Experimental Design
Determining that MPTP Causes Continued Cell Death
Control (non tg) and transgenic mice receive five intraperitoneal injections of MPTP-HCl (23 gauge needle, 20 mg\kg of free base; Sigma, St. Louis, Mo., USA) dissolved in sterile 0.9% saline at 2-h interval in 1 day. Control animals receive five intraperitoneal injections of 0.9% saline. […] 20 C57BL6, 10 control and 10 hA53T tg are used to establish the precise dose of toxin at 2 weeks. Animals are allowed to recover for 1 week, 2 weeks, 1 month, 12, months and 18 months. The animals are killed and the brains removed for histological (stereological) and biochemical analysis.
Determining Whether Test Drug Reduces MPTP Induced Cell Death
Animals are treated as described above. They are treated with test drug 2 days after MPTP injection until death. Test drug is given by oral gavage at a daily dosage of 30 mg/kg. The time of killing the animals is dependant on the analysis of Experiment 1, normally one month or less.
Drugs are administered by oral gavage, at a daily dosage of 30 mg/kg.
Mice are assessed at prior to killing the mice for histological analysis.
Motor coordination and strength are assessed using the rotarod. The rotarod consists of a plastic rotating rod of 3.6 cm axial diameter partitioned by metal disks into five sections to allow the testing of multiple mice simultaneously. Mice are trained on two sessions where the rotation speed is ramped from 0-30 rpm over 5 min and one training session where rotation is a constant 16 rpm for 5 min. Within two days of training, animals are formally assessed on the rotarod rotating at 16 rpm for a maximum of 3 min: the time to fall on this single test is the recorded data point.
The pole is a 700 mm long, 5 mm diameter, wooden rod. The rod is supported at its base and held vertical. The total walking distance for the mice is 550 mm. The time taken for the mouse to descend the pole is measured with a maximum time of 120 s. If a mouse falls, the time is scored as 120 s.

[2] = tested on: generation of hydrogen peroxide (H2O2) by iron; test: H2O2 Inhibition Assay; type: biochemical
Description: Assay 1. H2O2 Inhibition Assay.
(§1) This fluoresence assay evaluates the ability of a test compound to inhibit the generation of hydrogen peroxide (H2O2) by iron in the presence of a reducing substrate such as ascorbic acid. In the assay, iron in the form of FeCl3 or copper is allowed to react with ascorbic acid by incubating for 1 hr at 37° C. in the presence of the fluorescing compound DCF and horseradish peroxidase. H2O2 generated by the system is assessed by measuring the specific fluorescence profile at the excitation and emission wavelengths of 485 and 530 nm respectively, in the presence of increasing concentrations of test compound. Test compounds are ranked according to their capacity to inhibit H2O2 generated by the system where lower values reflect greater ability to inhibit H2O2 production.

[3] = tested on: Fe-DA; test: H2O2 assay, Fe-DA (% cf. Fe 0.4 μM/DA 50 μM); type: biochemical
Description: as §1

[4] = tested on: M17; test: Cytotox (% viable), cells marked M17; type: cell-based, human; conditions: repeat values given
[5] = tested on: M17 human neuroblastoma cells; test: Metal Uptake Assay (metal transport); type: cell-based; conditions: 10 μM Cu + 10 μM compound, 5 hours
Description: Assay 3. Metal Uptake Assay
M17 human neuroblastoma cells are plated out on 6 well plates and left overnight. Enough cells are added to give approximately 70% confluent the following day of the experiment. Test compounds are added to media and mixed with equi-molar amounts of CuCl2 solution. A=10 μM Cu+10 μM MPAC; B=10 μM Cu+10 μM MPAC.
Cells are incubated in 1 ml of media/MPAC/Cu mix for 5 hours at 37° C. At the end of the incubation the media is removed with a vacuum aspirator and 1 ml of PBS added to dislodge the cells. Cells are then put into Eppendorf tubes and pelleted. The PBS is removed and the remaining cell pellets are frozen at −20 C.
The cell pellets are prepared as follows:
Received cell pellets of similar levels in 1.5 ml microfuge tubes. Added 50 μl of concentrated Nitric Acid (Aristar, BDH) to each cell pellet and allowed them to digest over night. Heated the samples for 20 min at 90° C. to complete the digestion. The volume of each sample was reduced to ˜45 ul after digestion. Added 1 ml of the 1% Nitric Acid diluent to each sample. (referred to as the “preparation solution” samples).
Measurements were made using a Varian UltraMass ICPMS instrument under operating conditions suitable for routine multi-element analysis.
The instrument was calibrated using Blank, 10, 50 and 100 ppb of a certified multi-element ICPMS standard solution (ICP-MS—CAI2-1, Accustandard) for Fe, Cu and Zn in 1% nitric acid. Used an certified internal standard solution containing 100 ppb Yttrium (Y 89) as an internal control (ICP-MS—IS-MIX1-1, Accustandard).

[6] = Mouse Plasma Conc.; type: in vivo; conditions: given as 'Up to'
[7] = tested on: Neuronal cortical cells; test: Cytotox (% viable); Primary Neuronal Cells Neurotoxicity Assay; type: cell-based, mouse; conditions: cell type not given, repeat values given
Description: Assay 2 (a). Primary Neuronal Cells Neurotoxicity Assays
Cortical cultures were prepared as previously described (White et al., 1998). Embryonic day 14 BL6Jx129sv mouse cortices were removed, dissected free of meninges and dissociated in 0.025% (wt/vol) trypsin. Dissociated cells were plated in 48 well culture plates at a density of 2×10^6 cells/mL in MEM with 25% (vol/vol) FCS and 5% (vol/vol) HS and incubated at 37° C., 2 hrs. Media was then replaced with Neurobasal media (Invitrogen Life Technologies) and B27 supplements (Invitrogen Life Technologies). Cultures were maintained at 37° C. in 5% CO2. Prior to experimentation, the culture medium was replaced with Neurobasal media and B27 minus antioxidants (Invitrogen Life Technologies).
Neuronal cortical cells were cultured for five days as per Assay 2 in NB media and B27 supplement.
On day six the test compounds were added to the neuronal cell cultures in NB media and B27 supplement minus antioxidants.
Test compounds were dissolved in 100% DMSO to a concentration of 2.5 mM (10 mM if excess compound was weighed out per vial—then diluted to 2.5 mM). 2.5 mM stock solution was serially diluted 1 in 10 to give working solutions of 250 uM, 25 uM, 2.5 uM. Test compounds were not added directly to cells, instead they were added to a 48 well ‘Drug Plate’ as comprised below: • Preparation of “Drug Plate”:
Well 1: 576 ul NB+B27 (no antioxidant)*+24 ul 2.5 uM test compound
Well 2: 576 ul NB+B27 (no antioxidant)+24 μl 25 uM test compound
Well 3: 576 ul NB+B27 (no antioxidant)+24 ul 250 uM test compound
Well 4: 576 ul NB+B27 (no antioxidant)+24 ul 2.5 uM test compound
Well 5: 576 ul NB+B27 (no antioxidant)+24 ul 25 uM test compound
Well 6: 576 ul NB+B27 (no antioxidant)+24 ul 250 uM test compound
Well 7: 576 ul NB+B27 (no antioxidant)+24 ul test compound diluent**
Well 8: 600 ul NB+B27 (no antioxidant)
The Drug Plate was incubated at 37° C. for 15 mins. 200 ul of each well was added in triplicate to the corresponding cell plate. The cell plate was incubated at 37° C., for 4 days, (2 compounds are tested on each plate of cells).
*NB media and B27 (no antioxidants),
**PBT diluent 10% DMSO in NB+1327 (no antioxidants)
On completion of the assay, 1/10 volume MTS was added per well of plate (ie 25 ul/250 ul). The plates were incubated at 37° C. for 2 hrs, and then absorbance was read at 560 nm.

| SMILES | Behaviour Pole Test, % (SSV = 0%) [1] | Behaviour Pole Test, value ± SD [1] | SN cell counts % of SSV [1] | SN cell counts (cells +/− SD) [1] | IC50 [2] | Fe-DA % cf. Fe 0.4 μM/DA 50 μM [3] | Cytotox (% viable at 1 uM) [4] | Cytotox (% viable at 10 uM) [4] | Metal transport [5] | Mouse Plasma Conc. [6] | Fe-DA % cf. Fe/DA ([3]; 2 μM Fe) | Cytotox (% viable at 1 uM) [7] | Cytotox (% viable at 10 uM) [7] |
| --- | --- | --- | --- | --- | --- | --- | --- | --- | --- | --- | --- | --- | --- |
| CCCn1c(CNC)nc2c(O)c(Cl)cc(Cl)c2c1=O [Compound F4095, 5,7-Dichloro-8-hydroxy-2-((methylamino)methyl)-3-propylquinazolin-4(3H)-one] | 24.25% | (2.21 ± 0.89) | 12.15% | (2436.00 ± 603.06) cells | – | – | – | – | – | – | – | – | – |
| CC(C)Cn1c(CN(C)C)nc2c(O)c(Cl)cc(Cl)c2c1=O.Cl [Compound F4271, 5,7-Dichloro-2-((dimethylamino)methyl)-8-hydroxy-3-isobutylquinazolin-4(3H)-one] | – | – | – | – | 170 nM | 57% | 104.4% and 102.3% | 61.5% and 52.5% | Metal transport 27.8% | – | – | – | – |
| CCN1CCN(Cc2nc3c(O)c(Cl)cc(Cl)c3c(=O)n2CC2CC2)CC1 [Compound F4383] | – | – | – | – | 1510 nM | 81% | 118.5% and 102.3% | 103.4% and 92.7% | Metal transport 8% | – | – | – | – |
| O=c1c2c(Cl)cc(Cl)c(O)c2nc(CN2CCOCC2)n1CC1CC1 [Compound F4384] | – | – | – | – | – | – | 116.3% and 106.4% | 86.5% and 73.0% | Metal transport 17% | – | – | – | – |
| CCN(CC)Cc1nc2c(O)c(Cl)cc(Cl)c2c(=O)n1CC [Compound F4386] | – | – | – | – | 330 nM | 77% | 101.8% and 99.8% and 101.4% and 107.9% | 105.2% and 91.9% and 111.7% and 106.8% | Metal transport 13% | ≤ 3294.1 ng/mL | – | – | – |
| O=c1c2c(Cl)cc(Cl)c(O)c2nc(CN2CCCCC2)n1CC1CC1 [Compound F4391] | 9.96% | (2.63 ± 1.10) | 25.18% | (2719.11 ± 255.12) cells | 590 nM | – | 87.4% and 95.9% and 96.0% | 57.5% and 70.5% and 66.5% | Metal transport 34% | ≤ 17255.9 ng/mL | 97% | – | – |
| CCN(CC)Cc1nc2c(O)c(Cl)cc(Cl)c2c(=O)n1C [Compound F4473] | – | – | – | – | 600 nM | 62% | – | – | Metal transport 9% | ≤ 1356.2 ng/mL | – | 97.0% and 99.0% | 91.6% and 106.1% |
| CCn1c(CN2CCCCC2)nc2c(O)c(Cl)cc(Cl)c2c1=O [Compound F4483] | – | – | – | – | 330 nM | 62% | – | – | Metal transport 22% | ≤ 1585.2 ng/mL | – | 93.4% and 105.5% | 99.7% and 72.3% |
